According to patent publication US6767522B1, “Method for leaching sulfide-containing materials with microorganisms and use of sulphur-containing amino acids in leaching with microorganisms” (Hahn-Meitner-Institut Berlin GmbH, priority 1998, dated 2004):

Tested on: Thiobacillus ferrooxidans
Test: Bacterial dissolution of pyrite layers with Thiobacillus ferrooxidans in the presence of cysteine
Details: for lag phase of bacterial pyrite dissolution: pH 1.6; for pyrite corrosion level (or dissolution rate): pH 1.6, S^o-FeS2 pyrite layer 100 nm, after 10-11 days
Procedure: Each time, 1 cm^3 of pyrite layers 100 nm in thickness (referred to as S^o-FeS2), prepared according to Example 1 using elemental sulfur as precursor, was added with 300 μl of aqueous solutions or suspensions of Thiobacillus ferrooxidans cells and cysteine at concentrations of from 8×10^−2 to 8×10^−5 M in an in situ pyrite culture chamber. The pH value of the solutions was adjusted to 1.6 using Tuovinen buffer (for 1 liter: KH2PO4=0.4 g, MgSO4.7H2O=0.4 g, (NH4)2SO4=0.4 g, […], with no iron(II) being added) [cf., Tuovinen and Kelly, Arch. Mikrobiol. 88, 285-298 (1973)].
FIG. 1 is a plot of the pyrite corrosion level (or dissolution rate) [%] as a function of time [days] for the various solutions.

N[C@@H](CS)C(=O)O [cysteine]
lag phase of bacterial pyrite dissolution (8×10^−4 M cysteine in solution): no longer occurs
pyrite corrosion level (or dissolution rate) (8×10^−4 M cysteine in solution): 100%
lag phase of bacterial pyrite dissolution (8×10^−5 M cysteine in solution): no longer occurs
pyrite corrosion level (or dissolution rate) (8×10^−5 M cysteine in solution): 100%
